According to ChEMBL document CHEMBL1240439, “Synthesis and docking studies of novel benzopyran-2-ones with anticancer activity” (2010):
The source made the active and inactive calls.

Tests used:
Assay type in all cases: functional
HCT-15 = test: Cytotoxicity against human HCT15 cells assessed as cell growth at 10 uM after 48 hrs by sulforhodamine B assay
PC-3 = test: Cytotoxicity against human PC3 cells assessed as cell growth at 10 uM after 48 hrs by sulforhodamine B assay
COLO 205 = test: Cytotoxicity against human COLO205 cells assessed as cell growth at 10 uM after 48 hrs by sulforhodamine B assay
OVCAR-3 = test: Cytotoxicity against human OVCAR-3 cells assessed as cell growth at 10 uM after 48 hrs by sulforhodamine B assay
K562 = test: Cytotoxicity against human K562 cells assessed as cell growth at 10 uM after 48 hrs by sulforhodamine B assay
RXF 393 = test: Cytotoxicity against human RXF393 cells assessed as cell growth at 10 uM after 48 hrs by sulforhodamine B assay
RPMI-8226 = test: Cytotoxicity against human RPMI8226 cells assessed as cell growth at 10 uM after 48 hrs by sulforhodamine B assay
MOLT-4 = test: Cytotoxicity against human MOLT4 cells assessed as cell growth at 10 uM after 48 hrs by sulforhodamine B assay
SF-539 = test: Cytotoxicity against human SF539 cells assessed as cell growth at 10 uM after 48 hrs by sulforhodamine B assay
SNB-19 = test: Cytotoxicity against human SNB19 cells assessed as cell growth at 10 uM after 48 hrs by sulforhodamine B assay
CCRF-CEM = test: Cytotoxicity against human CCRF-CEM cells assessed as cell growth at 10 uM after 48 hrs by sulforhodamine B assay
HCC 2998 = test: Cytotoxicity against human HCC2998 cells assessed as cell growth at 10 uM after 48 hrs by sulforhodamine B assay
NCI-H522 = test: Cytotoxicity against human NCI-H522 cells assessed as cell growth at 10 uM after 48 hrs by sulforhodamine B assay
SF-295 = test: Cytotoxicity against human SF295 cells assessed as cell growth at 10 uM after 48 hrs by sulforhodamine B assay
A498 = test: Cytotoxicity against human A498 cells assessed as cell growth at 10 uM after 48 hrs by sulforhodamine B assay
A549 = test: Cytotoxicity against human A549 cells assessed as cell growth at 10 uM after 48 hrs by sulforhodamine B assay
BT-549 = test: Cytotoxicity against human BT549 cells assessed as cell growth at 10 uM after 48 hrs by sulforhodamine B assay
MCF7 = test: Cytotoxicity against human MCF7 cells assessed as cell growth at 10 uM after 48 hrs by sulforhodamine B assay
SNB-75 = test: Cytotoxicity against human SNB75 cells assessed as cell growth at 10 uM after 48 hrs by sulforhodamine B assay
SK-MEL-5 = test: Cytotoxicity against human SK-MEL-5 cells assessed as cell growth at 10 uM after 48 hrs by sulforhodamine B assay
SF-268 = test: Cytotoxicity against human SF268 cells assessed as cell growth at 10 uM after 48 hrs by sulforhodamine B assay
MDA-MB-231 = test: Cytotoxicity against human MDA-MB-231 cells assessed as cell growth at 10 uM after 48 hrs by sulforhodamine B assay
HOP-92 = test: Cytotoxicity against human HOP92 cells assessed as cell growth at 10 uM after 48 hrs by sulforhodamine B assay
786-0 = test: Cytotoxicity against human 786-0 cells assessed as cell growth at 10 uM after 48 hrs by sulforhodamine B assay
OVCAR-8 = test: Cytotoxicity against human OVCAR8 cells assessed as cell growth at 10 uM after 48 hrs by sulforhodamine B assay
TK-10 = test: Cytotoxicity against human TK10 cells assessed as cell growth at 10 uM after 48 hrs by sulforhodamine B assay
HOP-62 = test: Cytotoxicity against human HOP62 cells assessed as cell growth at 10 uM after 48 hrs by sulforhodamine B assay
NCI-H226 = test: Cytotoxicity against human NCI-H226 cells assessed as cell growth at 10 uM after 48 hrs by sulforhodamine B assay
IGROV-1 = test: Cytotoxicity against human IGROV1 cells assessed as cell growth at 10 uM after 48 hrs by sulforhodamine B assay
OVCAR-5 = test: Cytotoxicity against human OVCAR5 cells assessed as cell growth at 10 uM after 48 hrs by sulforhodamine B assay
M14 = test: Cytotoxicity against human M14 cells assessed as cell growth at 10 uM after 48 hrs by sulforhodamine B assay
T47D = test: Cytotoxicity against human T47D cells assessed as cell growth at 10 uM after 48 hrs by sulforhodamine B assay
MDA-MB-468 = test: Cytotoxicity against human MDA-MB-468 cells assessed as cell growth at 10 uM after 48 hrs by sulforhodamine B assay
SR = test: Cytotoxicity against human SR cells assessed as cell growth at 10 uM after 48 hrs by sulforhodamine B assay
NCI-H460 = test: Cytotoxicity against human NCI-H460 cells assessed as cell growth at 10 uM after 48 hrs by sulforhodamine B assay
EKVX = test: Cytotoxicity against human EKVX cells assessed as cell growth at 10 uM after 48 hrs by sulforhodamine B assay
HL-60(TB) = test: Cytotoxicity against human HL-60(TB) cells assessed as cell growth at 10 uM after 48 hrs by sulforhodamine B assay
UACC-257 = test: Cytotoxicity against human UACC257 cells assessed as cell growth at 10 uM after 48 hrs by sulforhodamine B assay
UO-31 = test: Cytotoxicity against human UO31 cells assessed as cell growth at 10 uM after 48 hrs by sulforhodamine B assay
SK-OV-3 = test: Cytotoxicity against human SKOV3 cells assessed as cell growth at 10 uM after 48 hrs by sulforhodamine B assay
NCI-H322M = test: Cytotoxicity against human NCI-H322M cells assessed as cell growth at 10 uM after 48 hrs by sulforhodamine B assay
HCT-116 = test: Cytotoxicity against human HCT116 cells assessed as cell growth at 10 uM after 48 hrs by sulforhodamine B assay
UACC-62 = test: Cytotoxicity against human UACC62 cells assessed as cell growth at 10 uM after 48 hrs by sulforhodamine B assay
KM12 = test: Cytotoxicity against human KM12 cells assessed as cell growth at 10 uM after 48 hrs by sulforhodamine B assay
OVCAR-4 = test: Cytotoxicity against human OVCAR4 cells assessed as cell growth at 10 uM after 48 hrs by sulforhodamine B assay
ACHN = test: Cytotoxicity against human ACHN cells assessed as cell growth at 10 uM after 48 hrs by sulforhodamine B assay
SK-MEL-28 = test: Cytotoxicity against human SK-MEL-28 cells assessed as cell growth at 10 uM after 48 hrs by sulforhodamine B assay
NCI-H23 = test: Cytotoxicity against human NCI-H23 cells assessed as cell growth at 10 uM after 48 hrs by sulforhodamine B assay
SK-MEL-2 = test: Cytotoxicity against human SK-MEL-2 cells assessed as cell growth at 10 uM after 48 hrs by sulforhodamine B assay
SN12C = test: Cytotoxicity against human SN12C cells assessed as cell growth at 10 uM after 48 hrs by sulforhodamine B assay
DU-145 = test: Cytotoxicity against human DU145 cells assessed as cell growth at 10 uM after 48 hrs by sulforhodamine B assay
Hs-578T = test: Cytotoxicity against human Hs 578T cells assessed as cell growth at 10 uM after 48 hrs by sulforhodamine B assay
HT-29 = test: Cytotoxicity against human HT-29 cells assessed as cell growth at 10 uM after 48 hrs by sulforhodamine B assay
LOX IMVI = test: Cytotoxicity against human LOXIMVI cells assessed as cell growth at 10 uM after 48 hrs by sulforhodamine B assay
MDA-MB-435 = test: Cytotoxicity against human MDA-MB-435 cells assessed as cell growth at 10 uM after 48 hrs by sulforhodamine B assay
U-251 = test: Cytotoxicity against human U251 cells assessed as cell growth at 10 uM after 48 hrs by sulforhodamine B assay
SW-620 = test: Cytotoxicity against human SW620 cells assessed as cell growth at 10 uM after 48 hrs by sulforhodamine B assay
Malme-3M = test: Cytotoxicity against human MALME-3M cells assessed as cell growth at 10 uM after 48 hrs by sulforhodamine B assay

Measured: Activity

CCCc1cc(=O)oc2c(C)c(OCc3nnc(S)o3)ccc12
inactive: all assays above

CCCc1cc(=O)oc2cc(OCc3nnc(S)o3)ccc12
inactive: all assays above
